{"source": "patent US20240285631A1", "about": "“METHODS OF TREATING VASCULAR MALFORMATIONS” (priority 2023, published 2024)", "key": {"[1]": {"tested_on": "retinal ECs of Alk1EC^iKO-Fucci2 pups", "assay": "Endothelial cell cycle state in Alk1EC^iKO-Fucci2 pups", "type": "in vivo, mouse", "conditions": "Alk1EC^iKO + CDK4/6i", "text": "All animal protocols and procedures were approved by the University of Virginia Animal Care and Use Committee and complied with all ethical regulations. Cdh5Cre^ERT21Rha^43 and Alk1^flox/flox were gifted from Drs. Ralf Adams and Paul Oh, respectively. R26p-Fucci2 (Fucci2) (Accession #CDB0203T)^44 and C57bl/6 mice were purchased from Riken and Jax, respectively. Cdh5Cre^ERT2 mice were crossed with Alk1^flox/flox mice (6-8-week-old) to generate Alk1EC^iKO pups. Cre activity in Alk1EC^iKO was induced in pups at P3 via a single intraperitoneal (i.p.) injection of Tamoxifen (Tx; Sigma T5648, […] of 4 mg/ml, resuspended in 10% ethanol and 90% corn oil). Alk1^flox/flox littermates were used as controls. Alk1EC^iKO mice were crossed with Fucci2 mice to generate Alk1EC^iKO-Fucci2 pups."}, "[2]": {"tested_on": "ENDOGLIN", "assay": "ENDOGLIN expression in retinal venous ECs of Alk1EC^iKO mice", "type": "in vivo, mouse", "conditions": "both mRNA and protein levels", "protocol": "FIG. 8A illustrates Western Blot analysis of the phosphorylation of the indicated proteins in response to VEGF-A (1.5 nM) in control vs. CDK4/6i treated HUVECs. FIG. 8B illustrates Western Blot analysis of the phosphorylation of the indicated proteins in response to BMP9 (10 ng/ml) in control vs. CDK4/6i-treated HUVECs. FIG. 8C illustrates quantification of phosphorylation normalized to total protein levels. (N=5 independent experiments, Data are mean±SEM, Mann-Whitney U test: *p<0.05). […] FIG. 8E illustrates ENDOGLIN (green) and IB4 (white) staining of retinal flat-mounts from P5 Alk1^fl/fl, Alk1^fl/fl treated with CDK4/6i, Alk1EC^iKO, and Alk1EC^iKO treated with CDK4/6i animals (A: Artery; V: Vein). FIG. 8F illustrates quantification of fluorescence intensity of ENDOGLIN staining in (FIG. 8E) retinal venous vessels of the indicated animals (N=4 retinas per group. Data are mean±SEM, one-way ANOVA with Tukey's multiple comparison test: *p<0.05; ns p>0.05). FIG. 8G illustrates timeline used for Tx injection, and CDK4/6i and FLT1 blocking antibody treatment of Alk1EC^iKO pups. […]\nEyes from P7 pups were pre-fixed in 4% PFA for 20 min at room temperature (RT). […] Quantification of vascular progression, density, AVM numbers and vessel diameters in the retinal vasculature were performed with Image J software."}}}
{"smiles": "CC(=O)c1c(C)c2cnc(Nc3ccc(N4CCNCC4)cn3)nc2n(C2CCCC2)c1=O", "note": "[Palbociclib, 6-acetyl-8-cyclopentyl-5-methyl-2-[5-(1-piperazinyl)pyridine-2-ylamino]pyrido[2,3-d]pyrimidin-7(8H)-one]", "values": [{"measurement": "percentage of ECs residing in the S/G2/M phases", "setting": "[1]; tamoxifen P3, Palbociclib P4, P5", "result": "significantly lower in arteries and capillaries"}, {"measurement": "proportion of ECs in late G1 state", "setting": "[1]; arteries and capillaries", "result": "higher proportion of ECs in late G1 state"}, {"measurement": "cell cycle state of venous ECs", "setting": "[1]; veins", "result": "no significant effects on venous ECs"}, {"measurement": "expression of ENDOGLIN in venous ECs", "setting": "[2]", "result": "promoted the expression of ENDOGLIN in venous ECs"}]}
